According to patent US9393250B2, “Phthalocyanine compounds useful as RecA inhibitors and methods of using same” (University of Saskatchewan, priority 2012, dated 2016):
Structures can show the parent of a compound that is named as a salt.

Key:
[1] = test system: SOS response (E. coli strain SS996); assay: SOS induction, GFP regulated by the sulA SOS promoter, flow cytometry; type: cell-based, Escherichia coli; details: KAN 43 μM, CAM 46 μM, TET 21 μM, SPECT 808 μM; three hours
Description: To confirm that the bactericidal antibiotic potentiating activity of 4,4-Fe-PcTs was correlated with reduced SOS induction, SOS induction in the E. coli strain SS996 was monitored. This strain contains a green fluorescent protein (GFP) regulated by the sulA SOS promoter.
SS996 cultures were grown to an optical density at 600 nm (OD600) of 0.3. For cultures treated with 4,4-Fe-PcTs, the 4,4-Fe-PcTs was added to give a concentration of 25 μM and the culture was incubated for three hours at 37° C. Antibiotics were then added to yield concentrations of 2.5 μM (CFX), 40 μM (AMP), 43 μM (KAN), 21 μM (TET), 46 μM (CAM), or 808 μM (SPECT). Samples (˜10^6 cells) were taken immediately before the addition of antibiotics (time zero) and every hour for three hours. Samples were washed once in PBS, and resuspended in PBS prior to analysis by flow cytometry. GFP expression was monitored using flow cytometer (Beckman Coulter, Inc.) with a 488 nm argon laser and a 515-545 nm emission. Flow cytometry data were analyzed using Flowjo (Tree Star, Inc.).

[2] = test system: bacteria / ΔrecA bacterial strain; details: cited from earlier work
[3] = test system: E. coli strain ATCC25922; assay: Antibiotic sensitivity assay (CFUs/ml), E. coli; type: cell-based, Escherichia coli; details: for decrease in CFUs relative to ciprofloxacin treatment alone: compound 25 μM + ciprofloxacin 40 nM
Description: (§1) Bacterial cultures were diluted to 10^5 cells/mL in LB broth (ATCC25922) or MH broth (ATCC27853, ATCC29212, ATCC29213). Antibiotics and/or phthalocyanines were added at indicated concentrations and the culture was incubated at 37° C. Samples were collected at 0, 24, 48, and 72 hours and plated on LB agar (ATCC25922) or tryptic soy blood agar (ATCC27853, ATCC29212, ATCC29213) to determine CFUs/ml.
The ability of 4,4-Fe-PcTs and 3,4-Cu-PcTs to potentiate the activity of ciprofloxacin (abbreviated “CFX”) was tested. Ciprofloxacin inhibits DNA gyrase in bacteria, causing accumulation of double-stranded DNA breaks (DSBs) and inducing the SOS response. The inventors characterized the ability of 4,4-Fe-PcTs and 3,4-Cu-PcTs to potentiate the activity of ciprofloxacin in the pathogenic E. coli strain ATCC25922, which was used previously by Cirz et al. to evaluate the role of SOS response proteins in antibiotic resistance.

[4] = target: DltA (Bacillus cereus, UniProt Q81G39); assay: DltA control for specificity of ATPase inhibition; type: biochemical; details: DltA assayed in the presence of 3,4-Cu-PcTs
Chain of DltA (Q81G39 whole entry): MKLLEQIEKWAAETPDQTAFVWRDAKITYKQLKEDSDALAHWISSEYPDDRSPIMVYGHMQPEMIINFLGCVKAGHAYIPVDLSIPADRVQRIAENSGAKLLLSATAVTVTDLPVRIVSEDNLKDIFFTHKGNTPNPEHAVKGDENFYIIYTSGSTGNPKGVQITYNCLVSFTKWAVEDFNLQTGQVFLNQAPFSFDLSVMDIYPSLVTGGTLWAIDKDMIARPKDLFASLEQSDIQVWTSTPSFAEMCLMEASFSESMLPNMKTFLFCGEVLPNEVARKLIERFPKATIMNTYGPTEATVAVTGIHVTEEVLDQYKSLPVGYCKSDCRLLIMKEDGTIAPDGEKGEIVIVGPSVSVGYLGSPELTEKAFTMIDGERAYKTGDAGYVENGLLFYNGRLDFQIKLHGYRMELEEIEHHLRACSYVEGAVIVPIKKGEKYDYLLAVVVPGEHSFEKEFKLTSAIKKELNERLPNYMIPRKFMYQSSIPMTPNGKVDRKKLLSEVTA
Description: DltA catalyzes the breakdown of ATP into AMP and pyrophosphate, which is further broken down by yeast pyrophosphatase into phosphate for quantification. Results are the average of two independent experiments where the deviation was less than 10%.

[5] = target: T1, EcRecA (Escherichia coli, UniProt P0A7G6); details: gel shift; 0, 10, 100 μM
T1 sequence (P0A7G6 whole entry): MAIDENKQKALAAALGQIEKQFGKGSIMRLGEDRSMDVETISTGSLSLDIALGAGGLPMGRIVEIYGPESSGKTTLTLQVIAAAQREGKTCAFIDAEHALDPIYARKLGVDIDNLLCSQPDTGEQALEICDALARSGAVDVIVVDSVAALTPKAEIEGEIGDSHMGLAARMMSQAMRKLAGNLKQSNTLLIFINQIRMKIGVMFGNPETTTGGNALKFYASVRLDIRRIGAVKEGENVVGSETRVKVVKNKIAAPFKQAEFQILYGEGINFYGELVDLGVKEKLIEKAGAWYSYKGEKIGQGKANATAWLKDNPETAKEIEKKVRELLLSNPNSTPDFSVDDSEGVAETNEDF
Description: EcRecA (4 μM), a 1.0-kb double-stranded DNA (dsDNA) PCR product (12 μM in base pairs), and indicated concentrations of 4,4-Fe-PcTs or 3,4-Cu-PcTs were incubated in binding buffer (5 mM MgAc2, 50 mM Tris-Hepes at pH 7.6) for 10 minutes at 37° C. EcRecA bound (slower migrating) and unbound dsDNA were resolved using a 1.0% agarose gel. The gel was stained with ethidium bromide and the fluorescence emission in the gel was recorded using a Kodak GelLogic 200 system.

[6] = target: EcRecA / EcLexA (Escherichia coli, UniProt P0A7G6); details: in presence of ATPγS
Chain of EcRecA / EcLexA (P0A7G6 whole entry): as above
Description: The LexA cleavage reaction (10 μl) contained 1 μM poly-(dT)45, 2 μM EcRecA, 10 μM EcLexA, 0.1 mM ATP-γ-S, 20 mM MgAc2, 50 mM Hepes-Tris at pH 7.6 and indicated concentrations of 4,4-Fe-PcTs or 3,4-Cu-PcTs. The reaction was incubated for 120 minutes at 21° C. and stopped by the addition of 5 μl of loading buffer (30% glycerol, 10% SDS, 0.2 M Tris-HCl at pH 6.8, 0.1% v/v 2-mercaptoethanol and 0.1% w/v bromophenol blue). The products were resolved using a 13% SDS-polyacrylamide gel. The proteins were stained with Coomassie Blue-R250.

[7] = target: T2, RecA (Escherichia coli, UniProt P0A7G6)
Description: RecA (5 μM) and 3,4-Cu-PcTs (50 μM) were incubated in 0.15 M NaCl and 0.05 M Tris-HCl buffer at pH 7.4. The protein complexes were resolved by loading 2 ml of RecA/3,4-Cu-PcTs on a Pharmacia sephacryl S-300 column pre-equilibrated with the running buffer. The size exclusion column was calibrated with standard proteins with molecular weights of 35, 67, and 167 KD. Elution of proteins off the size exclusion column was monitored using absorbance at 280 nm.
Target sequence in this assay (P0A7G6 whole entry): as above

[8] = target: T1, EcRecA; details: compound 10 μM; poly-(dT)36-stimulated; relative to reaction without inhibitor
Description: An ATPase assay [18] was used to screen a set of commercially available anionic, aromatic molecules for inhibitors of RecA ATPase activity. The release of inorganic phosphate by ATP hydrolysis was monitored using a Malachite Green phosphate assay [18]. The ssDNA-dependent ATPase reaction contained 1 μM EcRecA, 6 μM ssDNA (poly-(dT)36, concentration in nucleotides), 5 mM ATP, 50 mM Tris-Hepes buffer at pH 7.4, 10 mM MgCl2, 0.1% v/v 2-mercaptoethanol, and indicated amounts of 4,4-Fe-PcTs or 3,4-Cu-PcTs. Phosphate levels were measured by transferring 25 μl of ATPase reaction to 475 μl of malachite green phosphate assay, which contained 0.033% w/v Malachite Green, 1.3% w/v ammonium molybdate. 1.0 M HCl was used to monitor the release of inorganic phosphate by ATP hydrolysis [18]. The green complex formed between Malachite Green, molybdate, and free orthophosphate was measured by recording the absorbance at 620 nm.
Results are the average of two independent experiments where the deviation was less than 10%.

[9] = target: T1, EcRecA; details: gel shift; 0, 10, 100 μM; remark: listed apart in the source
[10] = target: T2, RecA; details: 3,4-Cu-PcTs 3.75 μM; RecA 3.5 μM; AMPPNP
Target sequence in this assay (P0A7G6 2-353): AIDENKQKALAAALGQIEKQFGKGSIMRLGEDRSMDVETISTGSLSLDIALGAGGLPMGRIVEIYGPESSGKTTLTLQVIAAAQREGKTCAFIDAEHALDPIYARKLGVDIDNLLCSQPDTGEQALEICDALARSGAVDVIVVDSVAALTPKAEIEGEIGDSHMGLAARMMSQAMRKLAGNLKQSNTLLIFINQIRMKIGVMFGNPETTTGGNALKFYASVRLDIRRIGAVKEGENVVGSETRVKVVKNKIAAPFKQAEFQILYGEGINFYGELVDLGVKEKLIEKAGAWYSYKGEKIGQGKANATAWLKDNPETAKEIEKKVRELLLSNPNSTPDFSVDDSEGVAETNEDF
Description: RecA-dsDNA-AMPPNP complexes formed by incubating RecA (3.5 μM), calf thymus dsDNA (Sigma) at a 40 dsDNA:1 RecA ratio (w/w), AMP-PNP (adenosine 5′-(β,γ-imido)triphosphate) (Sigma) (1.3 mM), MgAc2 (Sigma) (2 mM), triethanolamine-HCl (Fisher) buffer (25 mM, pH 7.2) with or without 3,4-Cu-PcTs (3.75 μM) at 37° C. for 10 minutes. Samples were applied to carbon-coated grids and stained with 2% uranyl acetate (w/v). Images were recorded on film with a Tecnai 12 electron microscope operating at 80 keV with a nominal magnification of 30,000×. Negatives were scanned with a Nikon Coolscan 8000 densitometer at a raster of 4.2 Å/pixel.

[11] = target: T1, EcRecA; details: in presence of ATPγS
Description: EcRecA (5 μM) was incubated with indicated concentrations of 4,4-Fe-PcTs or 3,4-Cu-PcTs in strand exchange buffer (2 mM ATP-γ-S(Sigma-Aldrich), 10 mM MgAc2, 100 mM KAc, 50 mM Hepes-Tris buffer at pH 7.6, 0.1% v/v 2-mercaptoethanol) for 10 minutes at 37° C. FAM43 (0.35 μM) was added and the reaction was incubated for 2 minutes. The reaction was started by the addition of 0.35 μM of the dsDNA substrate (annealing product of equimolar oligonucleotides 45A and 55A). The reaction was stopped at 30 minutes by adding EDTA to a final concentration of 20 mM and trypsin to a final concentration of 1 μg/μl. After 10 minutes, 10 μl of the reaction was mixed with 5 μl of loading buffer (30% glycerol and 0.1% bromophenol blue) and products were resolved using a 20% native acrylamide gel. The fluorescence emission in the gel was recorded using a Kodak GelLogic 200 system.

[12] = test system: ATCC25922 E. coli; assay: Ciprofloxacin resistance assay and reconstruction assay (in vitro mutagenesis); type: cell-based, Escherichia coli
Description: An in vitro mutagenesis assay [1] was used to measure the ability of 4,4-Fe-PcTs to block the acquisition of ciprofloxacin-induced resistance in ATCC25922 E. coli. ATCC25922 cells were plated on media containing ciprofloxacin in the presence or absence of 4,4-Fe-PcTs and cultured for 10 days. Colonies that appeared early in the assay (days 1 and 2) are believed to arise from pre-existing ciprofloxacin resistance mutations [1]. Colonies that appear later in the incubation (days 3 to 8) are due to ciprofloxacin resistance mutations acquired during exposure to ciprofloxacin or pre-existing mutations with a slow growth phenotype [1].
To distinguish between these two types of mutants, a reconstruction assay that tests for the time it takes for colonies to appear in the presence of ciprofloxacin was used. Colonies that appear at least two days faster than they appeared in the original ciprofloxacin mutagenesis screen were classified as colonies that acquire resistance after exposure to ciprofloxacin [1]. Colonies that appeared in the same number of days as in the ciprofloxacin resistance assay were classified as colonies with pre-existing mutations [1].
Twenty-five independent colonies of ATCC2592 were used to inoculate 25 LB broth cultures that were incubated at 37° C. for 25 hours. Viable cell counts in these cultures were determined by plating serial dilutions onto LB agar plates. One hundred microliters from each culture (˜10^8 cells) were plated in duplicate on LB agar containing ciprofloxacin (CFX) (40 nM) or ciprofloxacin (40 nM) and 4,4-Fe-PcTs (25 μM) (CFX+4,4-Fe-PcTs). Three additional 100 μL aliquots from three cultures were also plated on the same media to determine the number of viable cells per day. At 24 hour intervals, visible colonies were counted, removed from the plate, and stored at −80° C. for later use in the reconstruction assay and sequencing. Every 24 hours, in parallel with the resistance assay, small plugs of agar between visible colonies were excised from resistance assay plates. Agar plugs were homogenized in M9 buffer. Dilutions were plated in duplicate on LB plates to determine the total number of viable cells per day. The cells were also plated on LB containing CFX (40 nM) to determine if any CFX-resistant colonies remained after excision [1].
Reconstruction assays were used to determine whether ciprofloxacin resistant colonies were due to post-exposure mutation or due to mutation prior to ciprofloxacin exposure. Ciprofloxacin resistant clones isolated from the resistance assay were grown to saturation in LB media in 96 well plates. Cultures were then replica-plated in duplicate using a 96-pin replicator on LB plates to confirm viability and LB plates containing ciprofloxacin (40 nM) to confirm ciprofloxacin resistance. Ciprofloxacin-resistant clones that were isolated in the presence 4,4-Fe-PcTs were replica plated on LB and LB containing 4,4-Fe-PcTs (25 μM) and ciprofloxacin (40 nM). Clones that were resistant before ciprofloxacin exposure were defined as clones that formed colonies on the ciprofloxacin-containing media in the same number of days in the reconstruction assay as in the original resistance assay. Clones that mutated after exposure to ciprofloxacin were defined as clones that formed colonies earlier than in the original resistance assay [1].
The rate of ciprofloxacin resistance was defined as the number of ciprofloxacin-resistant mutants per viable cell that evolve as a function of time. […]

[13] = test system: Pseudomonas aeruginosa ATCC27853; assay: Antibiotic sensitivity assay (CFUs/ml), P. aeruginosa; type: cell-based; details: ciprofloxacin 6.5 μM
Description: as §1
To confirm that the activity of 4,4-Fe-PcTs was not specific to the gram-negative ATCC25922 E. coli, the ability of 4,4-Fe-PcTs to potentiate the activity of ciprofloxacin in another gram-negative (Pseudomonas aeruginosa ATCC27853) strain and two gram-positive (Staphylococcus aureus ATCC29213 and Enterococcus faecalis ATCC29212) strains was evaluated.

[14] = test system: ATCC25922 cells; assay: Neutropenic murine bacterial thigh infection model; type: in vivo, Escherichia coli; details: mice treated only with ciprofloxacin 1 mg/kg s.c.; after 72 hours of infection
Description: Six-eight week-old, specific-pathogen-free, female CD-1 mice (weight, 25-35 g) were rendered neutropenic by intraperitoneal injection with 150 mg/kg cylcophosphamide (Sigma) four days before infection and 100 mg/kg cyclophosphamide 24 hours before infection. LB broth cultures inoculated from fresh ATCC25922 colonies and cells were grown to the log phase (OD600 of approximately 0.3) and diluted 1:1000 in LB broth. Thigh infections were produced by injecting 50 μl (approximately 10^6 CFUs) of diluted cultures into halothane-anesthetized mice. One group of mice was administrated inteperitoneal injection of 4,4-Fe-PcTs in conjunction with the second dose of cyclophosphamide (24 hours prior infection) (4,4-Fe-PcTs (pre)+CFX). Starting two hours after infection (defined as time zero), mice were administered subcutaneous injections of either 1 mg/kg ciprofloxacin alone (CFX) or co-treatment of 1 mg/kg ciprofloxacin with interperitoneal injection of 10 mg/kg 4,4-Fe-PcTs (4,4-Fe-PcTs+CFX and 4,4-Fe-PcTs (pre)+CFX) every 24 hours for 3 days. After 48 and 72 hours, three mice from each group were sacrificed, and their thighs removed and homogenized to determine the number of viable bacterial cells for both ciprofloxacin-sensitive and ciprofloxacin-resistant ATCC25922 cells. Serial dilutions of homogenates of the infected thigh were plated on LB agar (CFX Sensitive) and LB agar plates containing ciprofloxacin (40 nM) (CFX Resistant) to count viable cells for each of the three treatment groups.

[15] = target: MvRadA (Methanococcus voltae, UniProt O73948); details: cited from earlier work
Chain of MvRadA (O73948 whole entry): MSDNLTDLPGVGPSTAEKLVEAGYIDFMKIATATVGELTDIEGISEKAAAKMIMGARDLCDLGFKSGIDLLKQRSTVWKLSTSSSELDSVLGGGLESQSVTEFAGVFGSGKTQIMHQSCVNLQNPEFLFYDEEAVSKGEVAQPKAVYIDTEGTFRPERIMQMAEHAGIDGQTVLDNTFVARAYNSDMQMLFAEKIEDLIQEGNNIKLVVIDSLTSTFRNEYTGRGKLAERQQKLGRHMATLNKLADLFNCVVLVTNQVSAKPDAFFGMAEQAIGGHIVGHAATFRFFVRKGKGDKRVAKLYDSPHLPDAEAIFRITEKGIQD

[16] = target: T2, RecA; details: cited from earlier work
Target sequence in this assay (P0A7G6 2-353): as the sequence (P0A7G6 2-353) above

## O=C(N[C@H](CO)[C@H](O)c1ccc([N+](=O)[O-])cc1)C(Cl)Cl [chloramphenicol]
[1]
  induction of SOS-GFP reporter by antibiotic alone: only very low levels of GFP expression

## CO[C@H]1/C=C/O[C@@]2(C)Oc3c(C)c(O)c4c(O)c(cc(O)c4c3C2=O)NC(=O)/C(C)=C\C=C\[C@H](C)[C@H](O)[C@@H](C)[C@@H](O)[C@@H](C)[C@H](OC(C)=O)[C@@H]1C [Rifamycin, rifamycin]
[2]; bacteria with RecA
  SOS response and killing of bacteria: activates the SOS response, but does not kill bacteria
[2]; ΔrecA bacterial strain
  activity in ΔrecA bacterial strain: shows bactericidal activity

## copper phthalocyanine-tetrasulfonic acid [Cu-PcTs]
[3]; 24 hours
  decrease in CFUs relative to ciprofloxacin treatment alone: ~100 fold

## phthalocyanine tetrasulfonic acid [H-PcTs]
[3]; 24 hours
  decrease in CFUs relative to ciprofloxacin treatment alone: ~100 fold

## copper phthalocyanine-3,4′,4″,4′″-tetrasulfonic acid tetrasodium salt [3,4-Cu-PcTs]
[3]; ciprofloxacin 40 nM
  potentiation of ciprofloxacin activity: potentiated the activity of ciprofloxacin
[3]; co-treated with ciprofloxacin 40 nM and compound at concentrations above 25 μM
  colony forming units (CFUs): no colony forming units (CFUs) were observed
[3]; compound 25 μM plus ciprofloxacin 40 nM, 24 hours
  CFUs: no CFUs were observed
[4]
  specificity of ATPase inhibition (DltA control): specific for inhibiting RecA ATPase activity
[5]
  inhibition of RecA dsDNA-binding activity: in the micromolar range
[6]
  inhibition of LexA cleavage: inhibited
[7]; 3,4-Cu-PcTs 50 μM, RecA 5 μM
  effect on molecular weight (oligomeric state) of RecA complex: reduced the molecular weight of the RecA complex to a size consistent to the RecA ring-shaped hexamer storage complex
[7]; pre-incubation with 3,4-Cu-PcTs 50 μM, RecA alone eluted near the void volume
  elution size of 3,4-Cu-PcTs/RecA complex: ~200 KD
[8]
  inhibition of EcRecA ATPase activity: high degree of inhibition
[9]
  inhibition of RecA ssDNA-binding activity: in the micromolar range
[10]
  effect on RecA filament formation: inhibited
[11]
  inhibition of DNA strand-exchange: inhibited

## CN[C@@H]1[C@H](O)[C@H](NC)[C@H]2O[C@@]3(O)C(=O)C[C@@H](C)O[C@H]3O[C@@H]2[C@H]1O [spectinomycin, spectinomycin dihydrochloride]
[1]
  induction of SOS-GFP reporter by antibiotic alone: only very low levels of GFP expression

## O=C(O)c1cn(C2CC2)c2cc(N3CCNCC3)c(F)cc2c1=O [ciprofloxacin, ciprofloxacin hydrochloride, reference compound]
[12]; cells treated with only ciprofloxacin
  ciprofloxacin-resistant cells over time: spike in ciprofloxacin-resistant cells at day 5
[12]; ciprofloxacin-alone (40 nM)
  ciprofloxacin-resistant colonies caused by pre-existing mutations: 29%
[13]
  sensitivity of ATCC27853 to ciprofloxacin compared with gram-positive strains: less sensitive to ciprofloxacin than the two gram-positive strains
[14]
  ciprofloxacin-resistant cells in thigh: Approximately 50,000 cells

## metatungstate (W12O40^6−)
[15]
  MvRadA ATPase, DNA-binding, and DNA strand-exchange activities: inhibited
[16]
  inhibition of RecA activity within E. coli cells: unable to inhibit

## aluminum (III) phthalocyanine chloride tetrasulfonic acid [Al-PcTs]
[3]; 24 hours
  decrease in CFUs relative to ciprofloxacin treatment alone: ~100 fold

## nickel (II) phthalocyanine-tetrasulfonic acid [Ni-PcTs]
[3]; 24 hours
  decrease in CFUs relative to ciprofloxacin treatment alone: ~100 fold

## zinc (II) phthalocyanine tetrasulfonic acid [Zn-PcTs]
[3]; 24 hours
  decrease in CFUs relative to ciprofloxacin treatment alone: ~100 fold

## NC[C@H]1O[C@H](O[C@H]2[C@H](O)[C@@H](O[C@H]3O[C@H](CO)[C@@H](O)[C@H](N)[C@H]3O)[C@H](N)C[C@@H]2N)[C@H](O)[C@@H](O)[C@@H]1O [Kanamycin, kanamycin monosulfate]
[1]
  induction of SOS-GFP reporter by antibiotic alone: did not induce the SOS-GFP reporter
